Read-outs that look alike come from different tables or passages of the source.
Key:
Vero cell line = assay: Cytotoxicity on Vero cells (MTT); type: cell-based, monkey; details: for IC50: Vero cells, 48 h, MTT, read-out: Cytotoxicity on Vero Cells IC50 ± SEM; for Selectivity Index Vero Cells/P. falciparum: cytotoxic/antiplasmodial activity ratio
Protocol: (§1) The cells were cultured in MEM medium (Dutscher, Brumath, France) supplemented with 10% fetal bovine serum (Dutscher), 0.7 mM glutamine and 100 μg/mL gentamicin. The cells were seeded at 10^4 cells per well in a 96-well plates and incubated during 24 h. Then, cells were incubated for additional 48 h with the drugs. […] Subsequently, DMSO was added to the wells containing the cells and MTT to dissolve the formed crystals. The plates were then read to determine the absorbance at wavelength of 540 nm (µQuant, BioTek, Illkirch, France). Cell proliferation was calculated from at least three independent experiments using GraphPad Prism software 7 (GraphPad Software, San Diego, CA, USA). The cytotoxic/antiplasmodial activity ratio corresponds to the selectivity index.

[1] = test system: P. falciparum F32-ART (artemisinin-resistant); assay: Recrudescence assay after 48 h drug exposure, F32-ART; type: cell-based, Plasmodium falciparum; details: 48 h exposure
Protocol: (§2) The Plasmodium falciparum F32-ART and F32-TEM parasite lines, resistant and sensitive to artemisinins respectively, were cultured in vitro in type O human erythrocytes (Etablissement Français du sang (EFS), Toulouse, France), diluted to 2% hematocrit, in RPMI-1640 medium (GIBCO, Illkirch, France) and supplemented with 5% Human Serum AB (EFS, Toulouse, France) at 37 °C and 5% CO2 [33]. Every other day and before each experiment, P. falciparum F32-ART and F32-TEM parasites were synchronized at ring stage using 5% D-sorbitol solution [34].
(§3) P. falciparum strains F32-ART and F32-TEM, synchronized at ring stage parasites at 3% parasitemia and 2% hematocrit have undergone a 48 h-treatment with the drugs to be tested. The parasites were then washed with RPMI-1640 medium and re-cultivated in drug-free culture conditions with 10% human serum. The parasitemia was then monitored daily to determine the time required for each parasite culture to recover the initial parasitemia of 3%. If no parasites were seen up to 30 days, the parasites were considered as “not recrudescent” [9, 15]. The drug doses were chosen in order to discriminate the phenotype response between the artemisinin-resistant and the -sensitive strains. A range from 1-fold to >100-fold the antiplasmodial IC50 value previously found has been tested to determine the most appropriate drug dose to use in this recrudescence assay.

[2] = test system: P. falciparum strain F32-TEM (F32-Tanzania); assay: In vitro antiplasmodial activity (SYBR Green fluorescence and [3H] hypoxanthine assays); type: cell-based, Plasmodium falciparum; details: strain F32-Tanzania (F32-TEM), mean of at least 4 experiments, SYBR Green and radioactivity assays, read-out: Antiplasmodial Activity on P. falciparum IC50 ± SEM
Protocol: In vitro antiplasmodial activities of the synthesized hybrid molecules were evaluated against the P. falciparum strain F32-TEM (corresponding to the parental strain F32-Tanzania). Each molecule was tested at least in three independent experiments (except Aubis(5-Bn), tested twice) by a SYBR Green Fluorescence assay but also at least once with the standard chemosensitivity assay recommended by the WHO and based on the incorporation of [^3H] hypoxanthine.
For the SYBR Green Fluorescence assay, ring stage parasites were treated with the drugs for 48 h. Then, the pellets were washed twice with PBS and frozen at −20 °C. Thawed plates were incubated for 2 h at room temperature with the SYBR Green (Thermo-Fisher, Illkirch, France) lysis buffer (20 mm Tris base pH 7.5, 5 mm EDTA, 0.008% w/v saponin, 0.08% w/v Triton X-100). The plates were then read using a fluorescence plate reader (FLx800, BioTek, Illkirch, France) at an excitation wavelength of 485 nm and 535 nm for the emission wavelength. The IC50 values (concentration inhibiting 50% of the parasite’s growth) were determined using GraphPad Prism software 7 (GraphPad Software, San Diego, CA, USA).
For [^3H] hypoxanthine assay, ring stage parasites were incubated with the drug dilutions for 24 h, then, [^3H] hypoxanthine (50 μL/0.25 μCi; Perkin-Elmer, Courtaboeuf, France) was added for another 24 h period. After that, plates were frozen at −20 °C. The next step is to thaw the plates and to collect the nucleic acids. Tritium incorporation was then determined thanks to a β-counter (Perkin-Elmer, Courtaboeuf, France).
The antiplasmodial activities reported in Table 1 correspond thus to the mean of IC50 values from at least 4 independent experiments acquired by the two methods, SYBR Green and radioactivity.

[3] = test system: P. falciparum F32-TEM (artemisinin-sensitive); assay: Recrudescence assay after 48 h drug exposure, F32-TEM; type: cell-based, Plasmodium falciparum; details: 48 h exposure
Protocol: as §2, §3

[4] = test system: P. falciparum F32-ART and F32-TEM strains; assay: Recrudescence assay, comparison of F32-TEM and F32-ART (cross-resistance with artemisinin); type: cell-based, Plasmodium falciparum; details: for Mean ± SEM Difference of Recrudescence Days between F32-TEM and F32-ART: 48 h exposure; for Cross-resistance with artemisinin (result in words): recrudescence assay, F32-ART vs F32-TEM
Protocol: Three hybrid molecules with the best selectivity indexes in each series, i.e., Aubis(3-Me) (14), Aubis(4-Me) (19) and Aubis(5-Me) (23), were evaluated in vitro for their efficacy in a context of resistance to artemisinins. For that, the comparison of the recovery capacity between the strain F32-ART, artemisinin-resistant, and its twin artemisinin-sensitive F32-TEM was evaluated after 48 h-treatment with the molecule to be tested via the recrudescence assay. When ring-stage resistant parasites are exposed to artemisinin, most of them die, but a small sub-set of parasites is able to escape the treatment by a cell cycle arrest, called quiescence mechanism. This phenomenon is characterized by a halt of DNA synthesis, which explains the very low IC50 values obtained with all artemisinins even for the artemisinin-resistant strain F32-ART [9, 15, 30]. Therefore, the standard in vitro chemosensitivity assay, based on the measurement of DNA levels to estimate the inhibition of the parasite proliferation, is irrelevant to study the resistance to artemisinins and evaluate possible cross-resistances.
as §3

[5] = Cytotoxicity on Vero cells (MTT); type: cell-based, monkey; details: monkey; Vero cells, 48 h, MTT; read-out: Cytotoxicity on Vero Cells IC50 ± SEM
Protocol: as §1

[6] = Plasmodium falciparum, F32, 48 h

C[C@@H]1CCC2[C@@H](C)[C@@H](OCCCCCn3cc[n+](C)[c]3[Au-][c]3n(CCCCCO[C@H]4O[C@@H]5O[C@@]6(C)CCC7[C@H](C)CCC([C@H]4C)[C@]75OO6)cc[n+]3C)O[C@@H]3O[C@@]4(C)CCC1[C@@]23OO4.[Cl-] (stereo partly drawn) [Aubis(5-Me)]
IC50 (Vero cell line): 1000 nM
Median (range) Recrudescence Days, F32-ART ([1]; dose 100 nM): 6 days
Median (range) Recrudescence Days, F32-ART ([1]; dose 500 nM): 9.5 (8–11) days
Median (range) Recrudescence Days, F32-ART ([1]; dose 1 µM): 9 days
IC50 ([2]; 48 h): 9 ± 0.9 nM
Median (range) Recrudescence Days, F32-TEM ([3]; dose 100 nM): 15 days
Median (range) Recrudescence Days, F32-TEM ([3]; dose 500 nM): >25.5 (21–>30) days
Median (range) Recrudescence Days, F32-TEM ([3]; dose 1 µM): 30 days
Mean ± SEM Difference of Recrudescence Days between F32-TEM and F32-ART ([4]; dose 100 nM): 9 days
Mean ± SEM Difference of Recrudescence Days between F32-TEM and F32-ART ([4]; dose 500 nM): >16 days
Mean ± SEM Difference of Recrudescence Days between F32-TEM and F32-ART ([4]; dose 1 µM): 21 days
Cross-resistance with artemisinin (result in words) [4]: cross-resistance

C[C@@H]1CC[C@H]2[C@@H](C)C(=O)O[C@@H]3O[C@@]4(C)CC[C@@H]1[C@]32OO4 [Artemisinin, reference compound]
Selectivity Index Vero Cells/P. falciparum (Vero cell line): 7 000
IC50 at 48 h [5]: 130000 nM
Median (range) Recrudescence Days, F32-ART ([1]; dose 18 µM): 9.5 (6–17) days
IC50 [2, 6]: 18 ± 2 nM
Median (range) Recrudescence Days, F32-TEM ([3]; dose 18 µM): 18.5 (17–>30) days
Mean ± SEM Difference of Recrudescence Days between F32-TEM and F32-ART ([4]; dose 18 µM): 9.7 ± 0.3 days
Mean ± SEM Difference of Recrudescence Days between F32-TEM and F32-ART ([4]; dose 18 µM, listed as artemisinin): 9.7 days

C[C@@H]1CCC2[C@@H](C)[C@@H](OCCCCn3cc[n+](C)[c]3[Au-][c]3n(CCCCO[C@H]4O[C@@H]5O[C@@]6(C)CCC7[C@H](C)CCC([C@H]4C)[C@]75OO6)cc[n+]3C)O[C@@H]3O[C@@]4(C)CCC1[C@@]23OO4.[Cl-] (stereo partly drawn) [Aubis(4-Me)]
IC50 (Vero cell line): 800 nM
Median (range) Recrudescence Days, F32-ART ([1]; dose 100 nM): 5 days
Median (range) Recrudescence Days, F32-ART ([1]; dose 500 nM): 12.5 (11–14) days
Median (range) Recrudescence Days, F32-ART ([1]; dose 1 µM): 16 days
IC50 ([2]; 48 h): 13 ± 3 nM
Median (range) Recrudescence Days, F32-TEM ([3]; dose 100 nM): 6 days
Median (range) Recrudescence Days, F32-TEM ([3]; dose 500 nM): >30 days
Median (range) Recrudescence Days, F32-TEM ([3]; dose 1 µM): 30 days
Mean ± SEM Difference of Recrudescence Days between F32-TEM and F32-ART ([4]; dose 100 nM): 1 days
Mean ± SEM Difference of Recrudescence Days between F32-TEM and F32-ART ([4]; dose 500 nM): >17.5 ± 1.5 days
Mean ± SEM Difference of Recrudescence Days between F32-TEM and F32-ART ([4]; dose 1 µM): 14 days
Cross-resistance with artemisinin (result in words) [4]: cross-resistance

C[C@@H]1CCC2[C@@H](C)[C@@H](OCCCCCn3cc[n+](Cc4ccccc4)c3)O[C@@H]3O[C@@]4(C)CCC1[C@@]23OO4 (stereo partly drawn) [L5-Bn, 3′-Benzyl-1′-[10β-(22-pentoxy)dihydroartemisinin]1H-imidazol-3-ium bromide]
Selectivity Index Vero Cells/P. falciparum (Vero cell line): 10
IC50 at 48 h [5]: 1000 nM
IC50 [2, 6]: < 100 nM
IC50 ([2]; 48 h): 98 ± 26 nM

C[C@@H]1CCC2[C@@H](C)[C@@H](OCCCn3cc[n+](C)[c]3[Au-][c]3n(CCCO[C@H]4O[C@@H]5O[C@@]6(C)CCC7[C@H](C)CCC([C@H]4C)[C@]75OO6)cc[n+]3C)O[C@@H]3O[C@@]4(C)CCC1[C@@]23OO4.O=[N+]([O-])[O-] (stereo partly drawn) [Aubis(3-Me)]
IC50 (Vero cell line): 5000 nM
Median (range) Recrudescence Days, F32-ART ([1]; dose 200 nM): 7 (7–13) days
Median (range) Recrudescence Days, F32-ART ([1]; dose 500 nM): 8 days
IC50 ([2]; 48 h): 35 ± 8 nM
Median (range) Recrudescence Days, F32-TEM ([3]; dose 200 nM): 14 (11–16) days
Median (range) Recrudescence Days, F32-TEM ([3]; dose 500 nM): 24 days
Mean ± SEM Difference of Recrudescence Days between F32-TEM and F32-ART ([4]; dose 200 nM): 4.6 ± 1.2 days
Mean ± SEM Difference of Recrudescence Days between F32-TEM and F32-ART ([4]; dose 500 nM): 16 days
Cross-resistance with artemisinin (result in words) [4]: cross-resistance

Cc1cc(C)c(-[n+]2ccn(CCCCCO[C@H]3O[C@@H]4O[C@@]5(C)CCC6[C@H](C)CCC([C@H]3C)[C@]64OO5)c2)c(C)c1 (stereo partly drawn) [L5-Mes, 3′-Mesityl-1′-[10β-(22-pentoxy)dihydroartemisinin]1H-imidazol-3-ium bromide]
Selectivity Index Vero Cells/P. falciparum (Vero cell line): 255
IC50 at 48 h [5]: 25000 nM
IC50 [2, 6]: < 100 nM
IC50 ([2]; 48 h): 98 ± 24 nM

C[C@@H]1CCC2[C@@H](C)[C@@H](OCCCBr)O[C@@H]3O[C@@]4(C)CCC1[C@@]23OO4 (stereo partly drawn) [DHA-C3, 10β-(20-Bromopropoxy)dihydroartemisinin]
Selectivity Index Vero Cells/P. falciparum (Vero cell line): 294
IC50 at 48 h [5]: 2500 nM
IC50 [2, 6]: 8.5 ± 3 nM

Source: PMC7356589, “Hybrid Gold(I) NHC-Artemether Complexes to Target Falciparum Malaria Parasites” (Molecules, 2020)
